This assay addresses T1, SMO (Mus musculus, UniProt P56726).
T1 construct: endogenous in cells; host or cells: C3H10T1/2 (ATCC #CCL-226)
As to the kind of experiment: Smoothened (SMO)/Sonic Hedgehog (SHh) Transient Transcriptional Activation Assay (Gli-luciferase reporter in C3H10T1/2 cells). It counts as cell-based, murine. The note with it: SHh 250 ng/ml, 20 hrs; for inhibition at 2 µM: C3H 10T1/2, 2 μM test compound, read-out: SMO CELL % INHIBITION @ 2 μM; for SMO CELL % INHIBITION @ 2 μM: 2 μM test compound. The method in brief: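 Luminescence (Dual-Glo) measured after 20 h co-exposure at 37 °C to 250 ng/ml human SHh and compound at 2 uM down to 2 nM final. Cells were C3H10T1/2 carrying a transfected murine 10× Gli response-element luciferase construct with pEGFP, starved 20 h in 0.5% calf serum beforehand.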
(In general: In a reporter assay the amount or activity of a reporter protein is the signal.)

Structures can show the parent of a compound that is named as a salt.

T1 sequence (P56726 33-793): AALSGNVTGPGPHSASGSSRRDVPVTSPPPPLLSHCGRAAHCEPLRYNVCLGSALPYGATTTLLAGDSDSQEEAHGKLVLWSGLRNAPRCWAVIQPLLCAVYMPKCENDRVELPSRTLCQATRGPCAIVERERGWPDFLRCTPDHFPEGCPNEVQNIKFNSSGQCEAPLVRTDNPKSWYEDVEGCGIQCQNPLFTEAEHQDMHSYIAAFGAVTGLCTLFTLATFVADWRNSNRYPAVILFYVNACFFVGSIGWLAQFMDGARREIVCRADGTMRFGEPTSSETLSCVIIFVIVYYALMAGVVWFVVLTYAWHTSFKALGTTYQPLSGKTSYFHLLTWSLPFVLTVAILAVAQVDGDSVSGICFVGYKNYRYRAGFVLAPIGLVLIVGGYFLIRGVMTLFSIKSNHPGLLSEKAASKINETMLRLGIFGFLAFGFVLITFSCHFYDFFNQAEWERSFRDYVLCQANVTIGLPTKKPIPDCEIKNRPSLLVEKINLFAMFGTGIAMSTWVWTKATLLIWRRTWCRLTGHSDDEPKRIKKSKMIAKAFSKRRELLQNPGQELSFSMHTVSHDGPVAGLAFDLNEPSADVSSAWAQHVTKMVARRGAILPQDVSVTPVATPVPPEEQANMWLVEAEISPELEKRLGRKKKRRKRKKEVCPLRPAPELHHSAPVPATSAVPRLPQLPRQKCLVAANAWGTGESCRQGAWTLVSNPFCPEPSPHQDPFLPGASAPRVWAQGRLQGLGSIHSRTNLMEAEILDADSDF

As to `O=C(NC12CCCC(c3nc4cc(C(F)(F)F)ccc4[nH]3)(C1)C2)c1ccc2c(c1)OCCO2` [Example 257, N-{5-[5-(trifluoromethyl)-1H-benzimidazol-2-yl]bicyclo[3.1.1]hept-1-yl}-2,3-dihydro-1,4-benzodioxine-6-carboxamide], the inhibition (usually the drop in the measured response relative to a control, in per cent) at 2 µM is 107%.

Regarding `Cl.O=C(NC12CCCC(c3nc4cc(C(F)(F)F)ccc4[nH]3)(C1)C2)c1ccc2c(c1)OCCO2` [Example 258, N-{5-[5-(trifluoromethyl)-1H-benzimidazol-2-yl]bicyclo[3.1.1]hept-1-yl}-2,3-dihydro-1,4-benzodioxine-6-carboxamide HCL], the “SMO CELL % INHIBITION @ 2 μM” value was determined as 99.22%.

For `COc1cc(OC)cc(C(=O)NC23CCCC(c4nc5cc(C(F)(F)F)ccc5[nH]4)(C2)C3)c1` [Example 259, 3,5-dimethoxy-N-{5-[5-(trifluoromethyl)-1H-benzimidazol-2-yl)bicyclo[3.1.1]hept-1-yl}benzamide], the inhibition at 2 µM is 95.5%.

On to `COc1cc(OC)cc(C(=O)NC23CCCC(c4nc5cc(C(F)(F)F)ccc5[nH]4)(C2)C3)c1` [Example 260, 3,5-dimethoxy-N-{5-[5-(trifluoromethyl)-1H-benzimidazol-2-yl]bicyclo[3.1.1]hept-1-yl}benzamide HCl], for which the “SMO CELL % INHIBITION @ 2 μM” value (HCl, 2 µM) turned out to be 101.34%.

As for `N#Cc1ccc(NC(=O)NC23CCCC(c4nc5cc(C(F)(F)F)ccc5[nH]4)(C2)C3)cc1` [Example 261, 1-(4-cyanophenyl)-3-{5-[5-(trifluoromethyl)-1H-benzimidazol-2-yl]bicyclo[3.1.1]hept-1-yl}urea], the inhibition at 2 µM amounted to 78.8%.

Regarding `N#Cc1ccc(NC(=O)NC23CCCC(c4nc5cc(C(F)(F)F)ccc5[nH]4)(C2)C3)cc1` [Example 262, 1-(4-cyanophenyl)-3-{5-[5-(trifluoromethyl)-1H-benzimidazol-2-yl]bicyclo[3.1.1]hept-1-yl}urea HCl], the “SMO CELL % INHIBITION @ 2 μM” value (HCl, 2 µM) amounted to 89%.

For `O=C(NC12CCCC(c3nc4cc(C(F)(F)F)ccc4[nH]3)(C1)C2)c1cc2c(cn1)OCCO2` [Example 263, N-{5-[5-(trifluoromethyl)-1H-benzimidazol-2-yl]bicyclo[3.1.1]hept-1-yl}-2,3-dihydro[1,4]di-oxino[2,3-c]pyridine-7-carboxamide], the inhibition at 2 µM stood at 91.4%.

In the case of `O=C(NC12CCCC(c3nc4cc(C(F)(F)F)ccc4[nH]3)(C1)C2)c1cc2c(cn1)OCCO2` [Example 264, N-{5-[5-(trifluoromethyl)-1H-benzimidazol-2-yl]bicyclo[3.1.1]hept-1-yl}-2,3-dihydro[1,4]di-oxino[2,3-c]pyridine-7-carboxamide HCl], under “HCl, 2 µM”, the “SMO CELL % INHIBITION @ 2 μM” value was determined as 94.31%.

With `O=C(N[C@@H]1CCC[C@H](c2nc3ccccc3[nH]2)C1)c1ccc2c(c1)CCCO2` [Example 265, N-[(1R,3S)-3-(1H-benzimidazol-2-yl)cyclohexyl] chromane-6-carboxamide], the inhibition at 2 µM was determined as 103%.

Consider `O=C(N[C@@H]1CCC[C@H](c2nc3ccccc3[nH]2)C1)c1ccc2c(c1)CCCO2` [Example 266, N-[(1R,3S)-3-(1H-benzimidazol-2-yl)cyclohexyl] chromane-6-carboxamide HCl], for which, where the note is “HCl, 2 µM”, the “SMO CELL % INHIBITION @ 2 μM” value was determined as 102.05%.

On to `O=C(N[C@@H]1CCC[C@H](c2nc3ccccc3[nH]2)C1)c1ccc2c(c1)CN(CC1CC1)CC2` [Example 267, N-[(1R,3S)-3-(1H-benzimidazol-2-yl)cyclohexyl]-2-(cyclopropyl-methyl)-1,2,3,4-tetrahydroiso-quinoline-7-carboxamide HCl], for which the inhibition at 2 µM turned out to be 103%.

Turning to `CN1[C@H](C(=O)N[C@@H]2CCC[C@H](c3nc4ccccc4[nH]3)C2)C[C@@H]2CCCC[C@@H]21` [Example 268, (2S,3aS,7aS)-N-[(1R,3S)-3-(1H-benzimidazol-2-yl)cyclohexyl]-1-methyloctahy-dro-1H-indole-2-carboxamide HCl], the inhibition at 2 µM was determined as 50.7%.

`COc1cc(OC)cc(C(=O)NC23CCCC(c4nc5cc(Cl)ccc5[nH]4)(C2)C3)c1` [Example 269, N-[5-(5-chloro-1H-benzimidazol-2-yl)bicyclo[3.1.1]hept-1-yl]-3,5-dimethoxybenz-amide]: the inhibition at 2 µM was determined as 107%.

With `N#Cc1ccc(NC(=O)NC23CCCC(c4nc5cc(Cl)ccc5[nH]4)(C2)C3)cc1` [Example 270, 1-[5-(5-chloro-1H-benzimidazol-2-yl)bicyclo[3.1.1]hept-1-yl]-3-(4-cyanophenyl) urea], the inhibition at 2 µM is 107%.

On to `O=C(NC12CCCC(c3nc4cc(Cl)ccc4[nH]3)(C1)C2)c1cc2c(cn1)OCCO2` [Example 271, N-[5-(5-chloro-1H-benzimidazol-2-yl)bicyclo[3.1.1]hept-1-yl]-2,3-dihydro[1,4]di-oxino[2,3-c]pyridine-7-carboxamide], for which the inhibition at 2 µM worked out at 84.7%.

As to `O=C(NC12CCCC(c3nc4cc(Cl)ccc4[nH]3)(C1)C2)c1ccc2c(c1)OCCO2` [Example 272, N-[5-(5-chloro-1H-benzimidazol-2-yl)bicyclo[3.1.1]hept-1-yl]-2,3-dihydro-1,4-benzodioxine-6-carboxamide], the inhibition at 2 µM came to 110%.

On to `[N-]=[N+]=Nc1ccc(C(=O)NC23CCCC(c4nc5cc(C(F)(F)F)ccc5[nH]4)(C2)C3)cc1` [Example 273, 4-azido-N-{5-[5-(trifluoromethyl)-1H-benzimidazol-2-yl]bicyclo[3.1.1]hept-1-yl}benzamide], for which the inhibition at 2 µM was 93.2%.

For `O=C(NC12CCCC(c3nc4cc(C(F)(F)F)ccc4[nH]3)(C1)C2)c1ccc(C(=O)C(F)(F)F)cc1` [Example 274, 4-(trifluoroacetyl)-N-{5-[5-(trifluoromethyl)-1H-benzimidazol-2-yl]bicyclo[3.1.1]hept-1-yl}benzamide], the inhibition at 2 µM came to 105%.

As to `O=C(NC12CCCC(c3nc4cc(C(F)(F)F)ccc4[nH]3)(C1)C2)c1ccc(C(=O)c2ccccc2)cc1` [Example 275, 4-benzoyl-N-{5-[5-(trifluoromethyl)-1H-benzimidazol-2-yl]bicyclo[3.1.1]hept-1-yl}benzamide], the inhibition at 2 µM stood at 89%.

Turning to `O=C(NC12CCCC(c3nc4cc(C(F)(F)F)ccc4[nH]3)(C1)C2)c1ccc2c(c1)CCCO2` [Example 276, N-{5-[5-(trifluoromethyl)-1H-benzimidazol-2-yl]bicyclo[3.1.1]hept-1-yl}chromane-6-carboxamide], the inhibition at 2 µM was 84.7%.

For `[N-]=[N+]=Nc1ccc(C(=O)NC23CCCC(c4nc5ccccc5[nH]4)(C2)C3)cc1` [Example 277, 4-azido-N-[5-(1H-benzimidazol-2-yl)bicyclo[3.1.1]hept-1-yl]benzamide], the inhibition at 2 µM came to 82.3%.

For the compound `O=C(NC12CCCC(c3nc4ccccc4[nH]3)(C1)C2)c1ccc(C(=O)c2ccccc2)cc1` [Example 278, N-[5-(1H-benzimidazol-2-yl)bicyclo[3.1.1]hept-1-yl]-4-benzoylbenz-amide], the inhibition at 2 µM was found to be 99.9%.

In the case of `O=C(NC12CCCC(c3nc4ccccc4[nH]3)(C1)C2)c1ccc2c(c1)CCCO2` [Example 279, N-[5-(1H-benzimidazol-2-yl)bicyclo[3.1.1]hept-1-yl]chromane-6-carboxamide], the inhibition at 2 µM came out at 92.6%.

Consider `CN1C(=O)COc2ccc(C(=O)N[C@@H]3CCC[C@H](c4nc5cc(C(F)(F)F)ccc5[nH]4)C3)cc21` [Example 280, 4-methyl-3-oxo-N-{(1R,3S)-3-[5-(trifluoromethyl)-1H-benzimidazol-2-yl]cyclohexyl}-3,4-dihydro-2H-1,4-benzoxazine-6-carboxamide HCl], for which the inhibition at 2 µM amounted to 112%.

With `O=C(N[C@@H]1CCC[C@H](c2nc3cc(C(F)(F)F)ccc3[nH]2)C1)c1n[nH]c2c1CCCC2` [Example 281, N-{(1R,3S)-3-[5-(trifluoromethyl)-1H-benzimidazol-2-yl]cyclohexyl]-4,5,6,7-tetrahydro-1H-indazol-3-carboxamide HCl], the inhibition at 2 µM was 98.5%.

Take `Cc1cccc(=O)n1CC(=O)N[C@@H]1CCC[C@H](c2nc3cc(C(F)(F)F)ccc3[nH]2)C1` [Example 282, 2-(6-methyl-2-oxopyridin-1(2H)-yl)-N-{(1R,3S)-3-[5-(trifluoromethyl)-1H-benzimidazol-2-yl]cyclohexyl} acetamide HCl]: the inhibition at 2 µM was found to be 85.2%.

Turning to `O=C(N[C@@H]1CCC[C@H](c2nc3cc(C(F)(F)F)ccc3[nH]2)C1)c1n[nH]c2c1CCCCCC2` [Example 283, N-{(1R,3S)-3-[5-(trifluoromethyl)-1H-benzimidazol-2-yl]cyclohexyl} 4,5,6,7,8,9-hexahydro-1H-cycloocta[c]-pyrazole-3-carboxamide HCl], the inhibition at 2 µM was determined as 106%.

`Cc1nn(C)c2sc(C(=O)N[C@@H]3CCC[C@H](c4nc5cc(C(F)(F)F)ccc5[nH]4)C3)cc12` [Example 284, 1,3-dimethyl-N-{(1R,3S)-3-[5-(trifluoromethyl)-1H-benzimidazol-2-yl]cyclohexyl}-1H-thieno[2,3-c]pyrazole-5-carboxamide HCl]: the inhibition at 2 µM was determined as 94.9%.

For `O=C1CCc2cc(C(=O)N[C@@H]3CCC[C@H](c4nc5cc(C(F)(F)F)ccc5[nH]4)C3)ccc2N1` [Example 285, 2-oxo-N-{(1R,3S)-3-[5-(trifluoromethyl)-1H-benzimidazol-2-yl]cyclohexyl}-1,2,3,4-tetrahydroquino-line-6-carboxamide HCl], the inhibition at 2 µM worked out at 111%.

With `O=C1Cc2cc(C(=O)N[C@@H]3CCC[C@H](c4nc5cc(C(F)(F)F)ccc5[nH]4)C3)ccc2N1` [Example 286, 2-oxo-N-{(1R,3S)-3-[5-(trifluoromethyl)-1H-benzimidazol-2-yl]cyclohexyl} indoline-5-carboxamide HCl], the inhibition at 2 µM was 114%.

The record behind these values is patent US20100029615A1, “BENZIMIDAZOLE DERIVATIVES” (priority 2006, published 2010).
